In the test the test system is durch Pentagastrin stimulierte Säuresekretion des perfundierten Rattenmagens. Kind of test: Inhibition of pentagastrin-stimulated acid secretion in the perfused rat stomach in vivo. More on the design: species or system Ratte. An excerpt:
Prüfung der sekretionshemmenden Wirkung am perfundierten Rattenmagen
In der folgenden Tabelle 2 ist der Einfluß der erfindungsgemäßen Verbindungen nach intravenöser Gabe auf die durch Pentagastrin stimulierte Säuresekretion des perfundierten Rattenmagens in vivo dargestellt.
Narkotisierten Ratten (CD-Ratte, weiblich, 200-250 g; 1,5 g/kg i.m. Urethan) wurde nach Tracheotomie das Abdomen durch einen medianen Oberbauchschnitt er-öffnet und ein PVC-Katheter transoral im Ösophagus sowie ein weiterer via Pylorus derart fixiert, daß die Schlauchenden eben noch in das Magenlumen hineinragten. Der aus dem Pylorus führende Katheter führte über eine seitliche Öffnung in der rechten Bauchwand nach außen.
Nach gründlicher Spülung (ca.50-100 ml) wurde der Magen mit 37 °C warmer physiologischer NaCl-Lösung kontinuierlich durchströmt (0,5 ml/min, pH 6,8-6,9; Braun-Unita I). In dem jeweils im 15 min-Abstand aufgefangenen (25 ml Meßzylinder) Effluat wurde der pH-Wert (pH-Meter 632, Glaselektrode EA 147; ⌀ = 5 mm, Metrohm) sowie durch Titration mit einer frisch zubereiteten 0,01 N NaOH bis pH 7 (Dosimat 655 Metrohm) die sezernierte HCl bestimmt.
Die Stimulation der Magensekretion erfolgte durch Dauerinfusion von 1µg/kg (=1,65 ml/h) i.v. Pentagastrin (V. fem. sin.) ca 30 min nach Operationsende (d.h. nach Bestimmung von 2 Vorfraktionen). […]

The structures appear in SMILES notation.

For the compound `COc1ccc(C(=O)O[C@@H]2Cc3ccccc3[C@H]2Oc2cccn3c(CO)c(C)nc23)cc1` (relative stereo) [Beispiel 2, 3-Hydroxymethyl-8-[trans-2-(4-methoxybenzoyloxy)-2,3-dihydro-1-indenyloxy]-2-methyl-imidazo[1,2-a]pyridin], where the note is “Rattus norvegicus, iv; i.v.; interpolated dose that causes a maximal inhibition of HCl secretion by 50 %; head says 'ca.'; read-out: Maximale Hemmung der Säureausscheidung ca. ED50 +) (µmol/kg) i.v.”, the ED50 was approximately 1.1 µmol/kg.

Consider `COCC(=O)O[C@@H]1Cc2cc(F)ccc2[C@H]1Oc1cccn2c(CO)c(C)nc12` (relative stereo) [Beispiel 5, 8-(5-Fluor-trans-2-methoxyacetoxy-2,3-dihydro-1-indenyloxy)-3-hydroxymethyl-2-methyl-imidazo[1,2-a]pyridin], for which the “Maximale Hemmung der Säureausscheidung ca. ED50 +) (µmol/kg) i.v.” value (i.v., interpolated dose that causes a maximal inhibition of HCl secretion by 50 %, head says 'ca.') is ~0,8 µmol/kg.

Source of the values: patent publication EP0368158A1, “Imidazo pyridines” (Byk Gulden Lomberg Chemische Fabrik GmbH, priority 1988, dated 1990).
